Values joined by “and” are separate entries in the source; they are usually repeats but may differ in a detail not shown here. Identical values can stand only once.
System: Wolbachia pipientis
Assay: Anti-Wolbachia Cell-Based Screen
Assay type: functional
Conditions: for IC50: Wolbachia pipientis

Structure (SMILES) | pIC50 | IC50 [µM]
CC1(C(=O)N2CCN(c3ncccn3)CC2)CNCCO1 (configuration not stated) | – | > 10
CN(C)c1ncc(I)c(C2CCCCN2S(C)(=O)=O)n1 (configuration not stated) | – | > 10
CNC(=O)c1cn[nH]c1C1(C)CCCN(Cc2nccn2C(C)C)C1 (configuration not stated) | – | > 10
Cc1csc(Nc2nccnc2C2CCCN2S(C)(=O)=O)n1 (configuration not stated) | – | > 10
COCCCN1Cc2cccc(NC(=O)C(C)(C)C)c2C1 | – | > 10
CCOc1nnc(CN2CCN(CCOC)CC2)s1 | – | > 10
CC(CNC1CCN(c2ccccn2)CC1)Oc1ccc(F)cc1 (configuration not stated) | – | > 10
CCOCCCC(=O)NCc1ccc(N2CCCCC2)cc1 | – | > 10
Cc1csc(CCCNC(=O)NC2CC(=O)N(C(C)(C)C)C2)n1 (configuration not stated) | – | > 10
CC(C)C(=O)Nc1ccc(C(O)Cn2nc(-c3cccs3)oc2=O)cc1 (configuration not stated) | – | > 10
O=c1oc(-c2cccs2)nn1CC(O)c1ccc2c(c1)CCC2 (configuration not stated) | – | > 10
CCc1sc(C(=O)NC2CC2)cc1C | – | > 10
COc1ccc(Br)c(C(=O)NCC2CC2)c1 | – | > 10
Cc1cc(NC(=O)c2ccccc2Br)n(C)n1 | – | > 10
O=C(NCCN1CCOCC1)N(CCCO)C1CCCc2ccccc21 (configuration not stated) | – | > 10
COc1c(CNCC(O)COc2ccc3c(c2)OCO3)c(C)nn1C (configuration not stated) | – | > 10
CC(C)Cn1ncc2cc(C(=O)N(C)CCc3ccccc3)cnc21 | – | > 10
CC(C)Cn1ncc2cc(C(=O)N(C)Cc3cccc(O)c3)cnc21 | – | > 10
CC(C)N(C(=O)c1csc(-c2ccoc2)n1)C1CCOCC1 | – | > 10
CC(c1ccco1)N(C(=O)c1cc2c([nH]c1=O)CCCC2=O)C1CC1 (configuration not stated) | – | > 10
CCC(C)n1cnc(S(=O)(=O)N(Cc2cccnc2)C(C)C)c1 (configuration not stated) | – | > 10
COc1ccccc1OCCN(C)c1cc(C)nc(N)n1 | – | > 10
CCc1ccc(CN(C(=O)CCn2cc(S(N)(=O)=O)cn2)C2CC2)cc1 | – | > 10

Structure (SMILES) | pIC50 | IC50 [µM]
NS(=O)(=O)c1cnn(CCC(=O)N(Cc2ccccc2)C2CC2)c1 | – | > 10
CN(C)c1cc(CNCc2ccc(N3CCOCC3)cc2)ccn1 | – | > 10
N#Cc1cc(F)c(NCc2ccc(F)cc2)c(F)c1 | – | > 10
Cn1cc(CN2C[C@@H]3CCC[C@@H](OCc4cccnc4)[C@@H]3C2)cn1 | – | > 10
CCCNC(=O)c1ncn2c1CN(CC(C)C)S(=O)(=O)c1ccccc1-2 | – | > 10
CN(C)C(=O)[C@H]1C[C@@H]2CN(S(=O)(=O)Cc3ccccc3)C[C@H]1O2 | – | > 10
Cc1ccc(C(=O)N2CCC3(CC2)CN(CCN(C)C)C(=O)O3)c(F)c1 | 5.079 | > 10
Cc1noc(-c2ccnc(Oc3ccc(CN4CCCC4)cc3C)c2)n1 | 5.704 and 5.368 | –
OC1(CN2CCC(Oc3cccc(C(F)(F)F)c3)CC2)CNCCOC1 (configuration not stated) | – | > 10
c1ccc(-c2nnc(N3CCCC4(CCOC4)C3)s2)cc1 (configuration not stated) | 5.105 | > 10
Cc1nn(C)c2nc(N3CCCCC3c3cccnc3)sc12 (configuration not stated) | 6.07 | 1.24
COc1ncccc1C(=O)N1CCc2c(ncnc2N2CCOCC2)C1 | – | > 10
Cc1cc(CN2CCCC2)cc(Oc2nc(C)cnc2C)c1 | – | > 10
Cc1c(CNCC(C)Oc2cccnc2)c2ccccc2n1CC(N)=O (configuration not stated) | – | > 10
CC1CCCN1Cc1cccc(C(=O)Nc2ccc3c(c2)CCC3=O)c1 (configuration not stated) | – | > 10
O=C1O[C@@H]2CN(C3CCOCC3)C[C@@H]2N1CCCc1ccc(F)cc1 | – | > 10
CCc1cc(C(=O)N2CCC3(CCCN(CC4CC4)C3=O)C2)cs1 (configuration not stated) | – | > 10
CCc1nc(N)nc(N2CCCC3(CCN(C)CC3)CC2)c1C | – | > 10
Cc1cc(NCCCNc2cccnc2)n2nc(C)c(C)c2n1 | 5.158 | > 10
CC(C)N1CC(NC(=O)c2ccc(Cl)s2)CC1=O (configuration not stated) | – | > 10
O=C1CC(c2ccc3ccccc3n2)c2c(n[nH]c2C2CCC2)N1 (configuration not stated) | – | > 10
CNc1ncc(CN(C)c2ncnc3onc(C)c23)cn1 | – | > 10
FC(F)(F)c1nc(NC2CCCCC2)c2ccccc2n1 | 5.146 and 5.539 | –

Structure (SMILES) | pIC50 | IC50 [µM]
CN(CCc1ccccc1)Cc1cc(C(=O)N2CCN(C)C(=O)C2)no1 | – | > 10
CCCS(=O)(=O)N1CCN(c2cc(-n3nc(C)cc3C)nc(C)n2)CC1 | – | > 10
Cc1cc(NC(=O)NCC(O)c2ccc(F)c(F)c2)n(C)n1 (configuration not stated) | – | > 10
c1cnnc(N2CCCC2CNCc2csc(-c3ccco3)n2)c1 (configuration not stated) | – | > 10
c1ccc(-c2nc(CN3CCCC3Cn3cncn3)no2)cc1 (configuration not stated) | – | > 10
Cc1ccccc1CNC(=O)Cn1nc(-c2ccc(F)cc2)oc1=O | – | > 10
Cc1nn(C)c(C)c1C(=O)NCc1ccnc(OCC(F)(F)F)c1 | – | > 10
COc1cc(CNC(=O)c2c(C)noc2C)ccn1 | – | > 10
CC(=O)N1CCN(C(=O)CCn2c(C)nc3ccccc3c2=O)CC1 | – | > 10
O=C(NCCCn1cncn1)N1CCCCCC1 | – | > 10
CC(C(=O)N1CCCN(Cc2ccc(C#N)cc2)CC1)n1cncn1 (configuration not stated) | – | > 10
CC(C(=O)N1CCCN(Cc2cnn(C)c2)CC1)n1ccnc1 (configuration not stated) | – | > 10
Cc1cc(NC(=O)CN2CCn3c(nnc3C3CC3)C2)on1 | – | > 10
CN1CCC/C1=N\S(=O)(=O)c1ccc(NC(=O)c2ccc(Cl)s2)cc1 | – | > 10
Cc1nn(C)c(C)c1C1CCCN1Cc1nc2ccccc2o1 (configuration not stated) | 5.128 | > 10
Cc1ccc(-c2nc(CN3CCn4c(C)nnc4C3)cs2)o1 | – | > 10
CC(C)C(C(=O)N1CCCN(Cc2nccn2C)CC1)N1CCCC1 (configuration not stated) | – | > 10
CC(=O)N(Cc1noc(C2CC2)n1)C1CCN(Cc2cccnc2)C1 (configuration not stated) | – | > 10
CCC(CC)C(O)CNC(=O)Nc1cc(C)nn1C (configuration not stated) | – | > 10
CCOc1ncccc1C(=O)N1CCCC1c1c(C)nn(C)c1OC (configuration not stated) | – | > 10
O=C(O)C(F)(F)F.O=C(O)c1c(-c2cccnc2)ncc2c1CCN(CC1CCOC1)C2 (configuration not stated) | < 5 | 7.49
Cc1nnc(N2CCCC3(CN(Cc4nccs4)CCO3)C2)o1 (configuration not stated) | – | > 10

Other lines, results leading:

pIC50 | IC50 [µM] | Structure (SMILES)
5.105 | 9.16 | CCc1ccc(CN(C)Cc2nc(COc3ccccc3)no2)nc1
– | > 10 | Cn1nccc1C(=O)N1CCCC2(CCN(c3ccsc3)C2=O)C1 (configuration not stated)
– | > 10 | NC(=O)C1CCN(c2nc3nccc(-c4ccccn4)c3c(=O)[nH]2)CC1
– | > 10 | O=C(CC1CC1)NCc1cc(=O)n2c(n1)CN(Cc1ccoc1)CCC2
– | > 10 | COc1ccc(C(C)N(C)Cc2c(C(C)C)[nH]c3ncccc23)cc1 (configuration not stated)
5.187 | 5.95 | CCc1c(C)nc2cc(-c3nccn3C)nn2c1N1CCCC(CO)C1 (configuration not stated)
< 5 | 9.95 | Cc1nc2cc(-c3nccn3C)nn2c(N2CCCC2)c1C
5.338 | 5.15 | CCC(CC)C(=O)N1CCCc2c(cnn2C)C1
5.126 | 5.53 | CSc1ccc(NCc2csc(C)n2)cc1F
5.107 | 7.69 | Cc1ccccc1C1CN(c2cnn(C)c(=O)c2Cl)CCO1 (configuration not stated)
5.724 | 1.91 | CCn1c(CNC(=O)Nc2nc(C)c(C)o2)nc2ccccc21
5.124 | 5 | Cc1ncc(CN(C)Cn2nc(-c3ccccc3)oc2=O)s1
5.626 | 2.32 | Cc1cccc(N2CCN(C(=O)c3c(C)nn(C)c3C)CC2)c1C
5.528 | 3 | COc1ccc(C(C#N)NC(=O)Cc2ccc(F)c(F)c2)c(OC)c1 (configuration not stated)
< 5 | 6.17 | O=C(Nc1ccccn1)NC(CCCO)c1ccccc1 (configuration not stated)
5.914 | 1.47 | CC(=O)NC(C)c1ccc(OCC2CC2)c(F)c1 (configuration not stated)
5.381 | 3.75 | CC(C)[C@@H]1CN(C2CCN(Cc3ccccc3)CC2)C[C@H]1NS(C)(=O)=O
5.592 | 2.9 | Cc1nn(C)c2nc(N(Cc3nccs3)C3CC3)sc12
5.26 | 6.44 | Fc1ccc(N2CCCN(Cc3ccc(-c4cc[nH]n4)o3)CC2)cc1
5.538 | 3.77 | CC(c1ccco1)N(C)Cc1cccc(C(=O)Nc2nccn2C)c1 (configuration not stated)
5.687 | 1.41 | CC(C)Cc1cc(C(=O)NCC2CCCN(Cc3ccco3)C2)on1 (configuration not stated)

pIC50 | IC50 [µM] | Structure (SMILES)
5.355 | 3.96 | CCN(CC)C(=O)c1ccc(Cl)c(NC(=O)c2cc[nH]n2)c1
5.674 | 2.24 | Cc1nn(C)c2nc(N3CCCCC3c3ccc(F)cc3)sc12 (configuration not stated)
5.66 | 3.11 | COCc1noc(-c2ccc(N(C)Cc3ncccc3C)nc2)n1
5.592 | 2.54 | CCC(Nc1nc(C)nc2onc(C)c12)c1nc(C)c(C)s1 (configuration not stated)
5.181 | 4.89 | Cc1ccc(CSc2nc(N)cc(NCCC(=O)N3CCCC3)n2)cc1
5.21 | 5.81 | Cc1n[nH]c(C)c1CCC(=O)N(C)Cc1cn[nH]c1-c1ccc(F)cc1
5.214 | 4.21 | Cc1ccc(CSc2nc(N)cc(NCCS(=O)(=O)N(C)C)n2)cc1
5.065 | 4.91 | CCc1nc(C)sc1CN1CCc2[nH]nc(-c3ccc(F)c(F)c3)c2C1
7.075 | 0.156 | Cc1nn(C)c2nc(N3CCCCC3c3nccs3)sc12 (configuration not stated)
5.818 | 1.82 | Cc1nn(C)c2nc(N3CCCC3c3nccs3)sc12 (configuration not stated)
5.613 | 1.92 | CCc1cc(N(C)Cc2nonc2C)nc(N(C)C)n1
5.368 | 3.83 | Cc1c[nH]c(CN2CCOC(c3ccc(Cl)c(Cl)c3)C2)c(C)c1=O (configuration not stated)
5.579 | 4.79 | CCc1cc(N(C)Cc2cc[nH]n2)n2nc(C)c(C)c2n1
5.809 | 1.75 | Cc1cc2nc(C(C)C)cc(NCC(c3ccccn3)N(C)C)n2n1 (configuration not stated)
< 5 | 8.23 | CCn1cc(NC(=O)c2cccc(CN3C[C@@H](C)O[C@@H](C)C3)c2)nn1
5.539 | 2.63 | Cc1c[nH]c(CN2CCOC(c3ccc(Cl)cc3)C2)c(C)c1=O (configuration not stated)
5.282 | 3.09 | CC(C)c1cc(CSCCC(=O)O)no1
5.233 | 5.75 | CCOCCCn1c(NC(=O)c2cnc(C)cn2)nc2ccccc21
5.454 | 3.17 | c1cnn(CC2CCCN2c2ncnc3ccsc23)c1 (configuration not stated)
5.24 | 6.09 | CCOC(=O)c1sc2ccsc2c1CNC(=O)C(C)(C)C#N
